Experimental findings from ChEMBL document CHEMBL4387741, “Optimization of novel reversible Bruton's tyrosine kinase inhibitors identified using Tethering-fragment-based screens” (Bioorg Med Chem, 2019) are described below.

The target in assay [1] is Atypical kinase COQ8B, mitochondrial (Homo sapiens) (UniProt Q96D53). The assay is described as follows: Inhibition of wild-type human full length ADCK4 (M1 to S544 residues) expressed in bacterial expression system at 10 uM by Kinomescan method relative to control.
Sequence of Atypical kinase COQ8B, mitochondrial (Homo sapiens) (Q96D53 whole entry, the tested form may be a part): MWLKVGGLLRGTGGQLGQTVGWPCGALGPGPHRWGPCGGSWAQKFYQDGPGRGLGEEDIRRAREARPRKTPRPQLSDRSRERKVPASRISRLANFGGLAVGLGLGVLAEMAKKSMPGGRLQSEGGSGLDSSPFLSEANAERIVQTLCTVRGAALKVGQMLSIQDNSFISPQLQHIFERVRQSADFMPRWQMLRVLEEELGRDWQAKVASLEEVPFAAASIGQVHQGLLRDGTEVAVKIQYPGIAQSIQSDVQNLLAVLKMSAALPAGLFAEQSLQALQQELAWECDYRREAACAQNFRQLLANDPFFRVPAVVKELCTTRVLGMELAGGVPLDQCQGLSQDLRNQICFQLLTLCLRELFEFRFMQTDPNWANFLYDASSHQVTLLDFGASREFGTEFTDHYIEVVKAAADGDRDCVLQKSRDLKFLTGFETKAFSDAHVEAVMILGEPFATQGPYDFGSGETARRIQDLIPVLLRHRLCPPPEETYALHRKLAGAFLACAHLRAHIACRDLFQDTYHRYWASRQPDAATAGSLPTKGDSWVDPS
Assay [2] has as its target Bone morphogenetic protein receptor type-1B (Homo sapiens) (UniProt O00238). Briefly: Inhibition of wild-type human partial length BMPR1B (D178 to L502 residues) expressed in mammalian expression system at 10 uM by Kinomescan method relative to control.
For assay [3], the target named is Megakaryocyte-associated tyrosine-protein kinase (Homo sapiens) (UniProt P42679). The assay is described as follows: Inhibition of wild-type human full length CTK (M43 to P508 residues) expressed in mammalian expression system at 10 uM by Kinomescan method relative to control.
The test system of assay [4] is Receptor-type tyrosine-protein kinase FLT3 (Homo sapiens), P36888 [UNDEFINED MUTATION]. Briefly: Inhibition of human partial length FLT3 ITD/F691L double mutant expressed in bacterial expression system at 10 uM by Kinomescan method relative to control.
Sequence of Receptor-type tyrosine-protein kinase FLT3 (Homo sapiens), P36888 [UNDEFINED MUTATION] (P36888 whole entry, looked up, stated change not applied, the tested form may be a part): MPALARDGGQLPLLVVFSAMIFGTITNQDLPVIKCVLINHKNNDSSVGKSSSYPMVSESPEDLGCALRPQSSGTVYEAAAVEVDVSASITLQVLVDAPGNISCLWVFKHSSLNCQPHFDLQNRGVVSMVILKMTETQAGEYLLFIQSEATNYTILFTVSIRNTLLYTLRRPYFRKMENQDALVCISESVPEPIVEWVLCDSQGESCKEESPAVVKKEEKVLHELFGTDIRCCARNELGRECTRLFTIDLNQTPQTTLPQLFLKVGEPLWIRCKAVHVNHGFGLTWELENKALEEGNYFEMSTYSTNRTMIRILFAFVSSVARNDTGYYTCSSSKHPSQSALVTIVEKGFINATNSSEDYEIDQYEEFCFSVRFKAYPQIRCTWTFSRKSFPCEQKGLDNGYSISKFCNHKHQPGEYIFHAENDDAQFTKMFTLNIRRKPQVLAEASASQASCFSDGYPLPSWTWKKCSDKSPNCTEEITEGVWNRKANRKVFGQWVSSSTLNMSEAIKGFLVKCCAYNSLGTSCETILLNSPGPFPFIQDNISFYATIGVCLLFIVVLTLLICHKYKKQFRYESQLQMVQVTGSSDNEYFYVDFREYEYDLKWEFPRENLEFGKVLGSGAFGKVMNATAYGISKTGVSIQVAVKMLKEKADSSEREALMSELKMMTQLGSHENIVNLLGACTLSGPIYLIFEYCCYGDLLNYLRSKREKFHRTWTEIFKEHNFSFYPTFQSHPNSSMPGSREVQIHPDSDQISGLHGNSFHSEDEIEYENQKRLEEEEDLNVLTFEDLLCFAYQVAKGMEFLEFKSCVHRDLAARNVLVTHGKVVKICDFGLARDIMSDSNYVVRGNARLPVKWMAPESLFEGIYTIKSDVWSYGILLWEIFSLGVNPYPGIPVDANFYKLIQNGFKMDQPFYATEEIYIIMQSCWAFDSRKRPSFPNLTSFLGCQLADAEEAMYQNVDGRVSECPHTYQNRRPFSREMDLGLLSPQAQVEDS
For assay [5], the target named is Leucine-rich repeat serine/threonine-protein kinase 2 (Homo sapiens) (UniProt Q5S007). Briefly: Inhibition of wild-type human partial length LRRK2 (H970 to E2527 residues) expressed in mammalian expression system at 10 uM by Kinomescan method relative to control.
In assay [6] the target is Mitogen-activated protein kinase kinase kinase kinase 5 (Homo sapiens) (UniProt Q9Y4K4). Briefly: Inhibition of wild-type human partial length MAP4K5 (M1 to P297 residues) expressed in bacterial expression system at 10 uM by Kinomescan method relative to control.
The target in assay [7] is Serine/threonine-protein kinase 38-like (Homo sapiens) (UniProt Q9Y2H1). Briefly: Inhibition of wild-type human partial length NDR2 (N34 to E447 residues) expressed in bacterial expression system at 10 uM by Kinomescan method relative to control.
In assay [8] the target is Serine/threonine-protein kinase Nek6 (Homo sapiens) (UniProt Q9HC98). The assay is described as follows: Inhibition of wild-type human full length NEK6 (M8 to T313 residues) expressed in bacterial expression system at 10 uM by Kinomescan method relative to control.
Sequence of Serine/threonine-protein kinase Nek6 (Homo sapiens) (Q9HC98 whole entry, the tested form may be a part): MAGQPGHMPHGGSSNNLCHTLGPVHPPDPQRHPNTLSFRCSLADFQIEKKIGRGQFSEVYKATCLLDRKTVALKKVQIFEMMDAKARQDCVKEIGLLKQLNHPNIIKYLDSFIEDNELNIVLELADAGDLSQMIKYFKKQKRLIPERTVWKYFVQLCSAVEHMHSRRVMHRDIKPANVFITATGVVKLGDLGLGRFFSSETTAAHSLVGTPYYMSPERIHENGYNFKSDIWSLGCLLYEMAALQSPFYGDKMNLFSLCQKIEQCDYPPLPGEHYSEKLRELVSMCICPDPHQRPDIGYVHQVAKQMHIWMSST
The target in assay [9] is Phosphatidylinositol 4-kinase beta (Homo sapiens) (UniProt Q9UBF8). The assay is described as follows: Inhibition of wild-type human full length PIK4CB (M1 to M828 residues) expressed in mammalian expression system at 10 uM by Kinomescan method relative to control.
For assay [10], the target named is Serine/threonine-protein kinase PLK4 (Homo sapiens) (UniProt O00444). Briefly: Inhibition of wild-type human partial length PLK4 (M1 to S273 residues) expressed in mammalian expression system at 10 uM by Kinomescan method relative to control.
In assay [11] the target is T1, Tyrosine-protein kinase BTK (Homo sapiens, UniProt Q06187). As to conditions: 10 uM.
T1 sequence (Q06187 whole entry, the tested form may be a part): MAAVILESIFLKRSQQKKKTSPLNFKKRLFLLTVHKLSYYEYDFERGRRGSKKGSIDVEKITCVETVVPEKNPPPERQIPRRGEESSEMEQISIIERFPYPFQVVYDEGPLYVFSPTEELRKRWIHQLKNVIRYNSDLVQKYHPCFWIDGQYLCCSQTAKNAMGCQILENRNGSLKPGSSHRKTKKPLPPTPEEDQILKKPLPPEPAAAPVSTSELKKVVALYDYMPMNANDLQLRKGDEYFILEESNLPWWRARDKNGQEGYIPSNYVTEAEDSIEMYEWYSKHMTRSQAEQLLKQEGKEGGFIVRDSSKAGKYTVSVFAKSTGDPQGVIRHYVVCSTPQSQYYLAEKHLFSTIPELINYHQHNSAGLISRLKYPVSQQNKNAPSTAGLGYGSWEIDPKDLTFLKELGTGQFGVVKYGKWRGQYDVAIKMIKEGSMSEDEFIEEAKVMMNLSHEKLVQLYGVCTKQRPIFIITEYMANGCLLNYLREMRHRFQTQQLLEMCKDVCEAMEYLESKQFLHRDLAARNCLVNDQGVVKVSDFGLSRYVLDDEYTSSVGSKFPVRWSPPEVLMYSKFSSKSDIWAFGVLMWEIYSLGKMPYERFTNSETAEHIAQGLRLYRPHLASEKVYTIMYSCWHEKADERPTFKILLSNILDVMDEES
Description: Inhibition of wild-type human full length BTK (M1 to S659 residues) expressed in mammalian expression system at 10 uM by Kinomescan method relative to control
Assay [12] relates to Tyrosine-protein kinase ABL1 (Homo sapiens), P00519 [F317L]. Briefly: Inhibition of human phosphorylated ABL1 F317L mutant (S229 to K512 residues) expressed in mammalian expression system at 1 uM by Kinomescan method relative to control.
Assay [13] addresses Activin receptor type-1B (Homo sapiens) (UniProt P36896). The assay is described as follows: Inhibition of wild-type human ACVR1B (S187 to I505 residues) expressed in bacterial expression system at 1 uM by Kinomescan method relative to control.
Assay [14] addresses NUAK family SNF1-like kinase 1 (Homo sapiens) (UniProt O60285). Briefly: Inhibition of wild-type human partial length ARK5 (E25 to I332 residues) expressed in bacterial expression system at 1 uM by Kinomescan method relative to control.
Assay [15] deals with Tyrosine-protein kinase Blk (Homo sapiens) (UniProt P51451). Briefly: Inhibition of wild-type human partial length BLK (G211 to L503 residues) expressed in bacterial expression system at 1 uM by Kinomescan method relative to control.
Sequence of Tyrosine-protein kinase Blk (Homo sapiens) (P51451 2-505 limits assumed): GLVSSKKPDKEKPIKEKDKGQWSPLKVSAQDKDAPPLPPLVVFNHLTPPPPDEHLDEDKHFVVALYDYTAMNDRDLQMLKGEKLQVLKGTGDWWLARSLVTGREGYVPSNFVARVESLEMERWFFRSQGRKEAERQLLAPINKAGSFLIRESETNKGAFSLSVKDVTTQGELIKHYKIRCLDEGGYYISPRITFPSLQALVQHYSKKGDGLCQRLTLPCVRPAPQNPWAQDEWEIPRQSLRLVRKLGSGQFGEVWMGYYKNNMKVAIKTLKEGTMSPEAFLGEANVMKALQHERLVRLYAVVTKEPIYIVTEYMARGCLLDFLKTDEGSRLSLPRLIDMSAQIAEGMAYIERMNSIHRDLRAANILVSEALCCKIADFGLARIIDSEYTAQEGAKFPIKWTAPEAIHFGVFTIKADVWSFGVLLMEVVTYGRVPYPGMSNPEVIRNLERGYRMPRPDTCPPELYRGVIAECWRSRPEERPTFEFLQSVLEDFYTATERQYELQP
In assay [16] the target is T1, Tyrosine-protein kinase BTK. Briefly: Inhibition of wild-type human full length BTK (M1 to S659 residues) expressed in mammalian expression system at 1 uM by Kinomescan method relative to control.
For assay [17], the target named is Cyclin-dependent kinase-like 3 (Homo sapiens) (UniProt Q8IVW4). The assay is described as follows: Inhibition of wild-type human partial length CDKL3 (M1 to D327 residues) expressed in bacterial expression system at 1 uM by Kinomescan method relative to control.
Assay [18] concerns Epidermal growth factor receptor (Homo sapiens), P00533 [G719C]. Briefly: Inhibition of human partial length EGFR G719C mutant (R669 to V1011 residues) expressed in bacterial expression system at 1 uM by Kinomescan method relative to control.
In assay [19] the target is Vascular endothelial growth factor receptor 3 (Homo sapiens) (UniProt P35916). The assay is described as follows: Inhibition of wild-type human partial length FLT4 (E821 to E1196 residues) expressed in bacterial expression system at 1 uM by Kinomescan method relative to control.
Sequence of Vascular endothelial growth factor receptor 3 (Homo sapiens) (P35916 whole entry, the tested form may be a part): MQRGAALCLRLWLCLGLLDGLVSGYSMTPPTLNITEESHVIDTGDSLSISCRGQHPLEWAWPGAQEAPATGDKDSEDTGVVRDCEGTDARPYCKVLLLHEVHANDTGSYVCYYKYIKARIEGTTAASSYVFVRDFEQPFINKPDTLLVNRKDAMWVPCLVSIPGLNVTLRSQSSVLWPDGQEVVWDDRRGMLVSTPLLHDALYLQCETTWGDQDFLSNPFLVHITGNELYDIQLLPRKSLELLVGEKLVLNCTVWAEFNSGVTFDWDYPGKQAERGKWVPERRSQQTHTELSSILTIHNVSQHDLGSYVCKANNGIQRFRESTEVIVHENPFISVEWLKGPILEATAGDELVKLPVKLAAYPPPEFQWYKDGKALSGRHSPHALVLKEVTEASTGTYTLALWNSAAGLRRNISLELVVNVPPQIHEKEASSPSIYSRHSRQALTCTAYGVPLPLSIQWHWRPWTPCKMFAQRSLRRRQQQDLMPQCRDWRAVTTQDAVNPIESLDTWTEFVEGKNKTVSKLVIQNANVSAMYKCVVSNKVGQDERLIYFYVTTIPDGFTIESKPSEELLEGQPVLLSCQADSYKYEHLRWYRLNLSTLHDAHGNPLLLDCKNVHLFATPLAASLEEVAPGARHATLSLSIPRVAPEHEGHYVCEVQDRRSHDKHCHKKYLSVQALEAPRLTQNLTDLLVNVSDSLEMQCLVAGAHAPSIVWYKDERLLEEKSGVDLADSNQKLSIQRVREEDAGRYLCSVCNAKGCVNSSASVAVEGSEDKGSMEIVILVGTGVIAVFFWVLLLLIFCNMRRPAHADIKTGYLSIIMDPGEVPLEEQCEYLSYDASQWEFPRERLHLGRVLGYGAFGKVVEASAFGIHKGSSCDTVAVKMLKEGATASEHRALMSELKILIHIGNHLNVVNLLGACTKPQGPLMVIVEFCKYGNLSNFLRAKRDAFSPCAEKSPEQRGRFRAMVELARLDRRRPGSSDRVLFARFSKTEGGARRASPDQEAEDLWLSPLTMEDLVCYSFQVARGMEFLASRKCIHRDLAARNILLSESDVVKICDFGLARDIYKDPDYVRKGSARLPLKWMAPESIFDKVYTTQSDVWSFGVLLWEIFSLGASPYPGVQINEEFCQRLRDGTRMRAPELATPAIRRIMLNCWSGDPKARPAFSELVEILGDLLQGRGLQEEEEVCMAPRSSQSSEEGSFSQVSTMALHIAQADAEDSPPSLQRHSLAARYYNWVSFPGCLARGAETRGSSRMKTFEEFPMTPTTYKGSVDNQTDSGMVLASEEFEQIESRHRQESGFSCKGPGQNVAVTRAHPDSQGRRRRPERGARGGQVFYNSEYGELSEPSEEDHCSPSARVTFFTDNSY
Assay [20] has as its target Insulin receptor (Homo sapiens) (UniProt P06213). The assay is described as follows: Inhibition of wild-type human partial length INSR (P997 to E1318 residues) expressed in mammalian expression system at 1 uM by Kinomescan method relative to control.
Assay [21] deals with Tyrosine-protein kinase JAK2 (Homo sapiens) (UniProt O60674). Briefly: Inhibition of wild-type human partial length JAK2 JH1 catalytic domain (A829 to G1132 residues) expressed in mammalian expression system at 1 uM by Kinomescan method relative to control.
The target of assay [22] is Tyrosine-protein kinase Lck (Homo sapiens) (UniProt P06239). The assay is described as follows: Inhibition of wild-type human partial length LCK (R207 to P509 residues) expressed in bacterial expression system at 1 uM by Kinomescan method relative to control.
For assay [23], the target named is Dual specificity mitogen-activated protein kinase kinase 2 (Homo sapiens) (UniProt P36507). Briefly: Inhibition of wild-type human full length MEK2 (M1 to V400 residues) expressed in mammalian expression system at 1 uM by Kinomescan method relative to control.
Sequence of Dual specificity mitogen-activated protein kinase kinase 2 (Homo sapiens) (P36507 whole entry, the tested form may be a part): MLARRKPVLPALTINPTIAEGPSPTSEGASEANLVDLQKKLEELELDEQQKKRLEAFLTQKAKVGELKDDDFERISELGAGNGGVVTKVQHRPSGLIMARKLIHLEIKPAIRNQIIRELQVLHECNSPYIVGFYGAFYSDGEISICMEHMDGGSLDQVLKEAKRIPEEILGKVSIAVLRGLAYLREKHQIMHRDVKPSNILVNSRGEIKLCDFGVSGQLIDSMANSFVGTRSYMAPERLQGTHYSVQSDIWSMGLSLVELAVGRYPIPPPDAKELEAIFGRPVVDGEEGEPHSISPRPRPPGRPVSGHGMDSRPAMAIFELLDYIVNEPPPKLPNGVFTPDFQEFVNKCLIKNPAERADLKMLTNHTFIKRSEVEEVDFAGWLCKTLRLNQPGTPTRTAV
In assay [24] the target is Dual specificity mitogen-activated protein kinase kinase 6 (Homo sapiens) (UniProt P52564). The assay is described as follows: Inhibition of wild-type human partial length MEK6 (K36 to D334 residues) expressed in bacterial expression system at 1 uM by Kinomescan method relative to control.
Assay [25] deals with Tyrosine-protein kinase Mer (Homo sapiens) (UniProt Q12866). Briefly: Inhibition of wild-type human partial length MERTK (R557 to L884 residues) expressed in bacterial expression system at 1 uM by Kinomescan method relative to control.
In assay [26] the target is Serine/threonine-protein kinase 32C (Homo sapiens) (UniProt Q86UX6). The assay is described as follows: Inhibition of wild-type human partial length YANK3 (M68 to G486 residues) expressed in bacterial expression system at 1 uM by Kinomescan method relative to control.
Assay [27] deals with Mitogen-activated protein kinase kinase kinase 19 (Homo sapiens) (UniProt Q56UN5). Briefly: Inhibition of wild-type human partial length YSK4 (T1019 to H1328 residues) expressed in mammalian expression system at 1 uM by Kinomescan method relative to control.

As a reminder, the inhibition is the drop in the measured response relative to a control, in per cent. A high value points to a response far below the control. On to `O=C(Nc1cccc([C@H]2CCCN(c3ncnc4[nH]ccc34)C2)c1)Nc1ccccc1N1CCCC1`, for which the inhibition was found to be 100% in [1]; 46% in assay [2]; 85% in assay [3]; 3.6% in assay [4]; 96% in assay [5]; 30% in assay [6]. The inhibition in assay [7] amounted to 100%; in assay [8], 69%; in [9] it was 89%; in assay [10], 4.9%; in assay [11] it was 0.6%.
As to `O=C(Nc1cccc([C@@H]2CN(c3ncnc4[nH]ccc34)CCN2CCO)c1)Nc1c(F)cccc1N1CCCC1`, the inhibition in assay [12] worked out at 100%; in assay [13], 83%; in assay [14], 45%; in assay [15], 20%; in [16], 0.3%; in assay [17], 100%. Besides, the inhibition in [18] turned out to be 100%; in assay [19] it was 16%; in assay [20], 100%; in assay [21], 0%; in assay [22] it was 56%; in [23], 73%. The inhibition in [24] worked out at 92%; in [25] it was 31%; in assay [26], 100%; in assay [27], 40%.
